Experimental data from ChEMBL document CHEMBL1862790, “Optimisation of fenarimol series for the treatment of Chagas disease”.

How the values were obtained:
[1] = test system: Trypanosoma cruzi; assay: microbe, parasite or virus in culture; type: functional, Tulahuen LacZ, Clone C4; conditions: Trypanosoma cruzi, Tulahuen LacZ, Clone C4
[2] = DNDI: Cytotoxicity against L-6 rat myoblasts from skeletal muscle cells; conditions: L6 rat skeletal muscle myoblast cells
[3] = test system: Trypanosoma cruzi; assay: microbe, parasite or virus in culture; type: functional, organism-based, Tulahuen LacZ, Clone C4; conditions: Trypanosoma cruzi, Tulahuen LacZ, Clone C4

Row | SMILES | IC90 [1] [nM] | IC50 ([2]; IC50) [nM] | IC50 [3] [nM] | IC50 [2] [nM]
1 | O=C(Nc1ccccc1)NC1CCN(C(c2ccc(Cl)cc2)c2cccnc2)CC1 (stereo not given) | 75 | 75600 | 20 | 
2 | O=C(Nc1ccccc1)N1CCC(NC(c2ccc(C(F)(F)F)cc2)c2cccnc2)CC1 (stereo not given) | 380 | 64100 | 76 | 
3 | Cc1cc(C(=O)NC2CCN(C(c3ccc(C#N)cc3)c3cccnc3)CC2)on1 (stereo not given) | 688 | > 100000 | 196 | 
4 | O=S(=O)(c1ccc(C(F)(F)F)cc1)N1CCC(NC(c2cccnc2)c2ccc(Cl)cc2F)CC1 (stereo not given) | 95 | 18000 | 36 | 
5 | NC(=O)c1cccc(C(O)(c2cccnc2)c2ccc(Cl)cc2F)c1 (stereo not given) | 356 | > 100000 | 24.5 | 
6 | COC(=O)N(OC)c1ccccc1COc1ccn(-c2ccc(Cl)cc2)n1 [PYRACLOSTROBIN] | > 10000 |  | 6460 | 43400
7 | O=C1OC(c2ccc(Cl)cc2)(c2cccnc2)c2ccccc21 (stereo not given) | 870 | 84800 | 230 | 
8 | O=C(NCC1CCCCC1)c1cccc(C(O)(c2ccc(Cl)cc2)c2cccnc2)c1 (stereo not given) | 280 | > 100000 | 100 | 
9 | Cc1ncsc1C(=O)N1CCC(NC(c2ccc(C(F)(F)F)cc2)c2cncs2)CC1 (stereo not given) | 240 | > 100000 | 68.5 | 
10 | Cc1nc(C(=O)N2CCC(NC(c3ccc(C(F)(F)F)cc3)c3cccnc3)CC2)co1 (stereo not given) | 968 | > 100000 | 590 | 
11 | Fc1ccc(OC2CCN(C(c3ccc(C(F)(F)F)cc3)c3cccnc3)CC2)cc1 (stereo not given) | 30 | 23800 | 21 | 
12 | CC(C)CC(O)(c1ccc(Cl)cc1)c1cnccn1 (stereo not given) | 337 | > 100000 | 139 | 
13 | CC(C)Oc1ccc(C(NC2CCN(C(=O)c3ccccc3)CC2)c2cccnc2)cc1 (stereo not given) | 270 | > 100000 | 74 | 
14 | O=C(C1CC1)N1CCN(C(c2cncnc2)c2ccc(C(F)(F)F)cc2F)CC1 (stereo not given) | 332 | > 100000 | 178 | 
15 | CC(C)(O)CN1CCC(NC(c2ccc(Cl)cc2)c2cccnc2)CC1 (stereo not given) | 1020 | > 100000 | 565 | 
16 | OC(c1ccc(Cl)cc1)(c1ccncn1)c1ccccc1Cl (stereo not given) | 8570 |  | 7050 | > 100000
17 | CC(C)c1ccc(NC(=O)N2CCN(C(c3ccc(Cl)cc3)c3cncnc3)CC2)cc1 (stereo not given) | 36 | 36000 | 11 | 
18 | O=C(NC1CCN(C(c2cnccn2)c2ccc(F)cc2F)CC1)c1ccc(Cl)cc1 (stereo not given) | 760 | 66900 | 270 | 
19 | OC(c1ccc(Cl)cc1)(c1cccnc1)c1sccc1Cl (stereo not given) | 72 | 70100 | 28 | 
20 | COc1ccc(C(O)(c2cncnc2)c2ccccc2Cl)cc1 (stereo not given) | 60000 | 70900 | 393 | 
21 | Fc1ccccc1N1CCC(NC(c2ccc(C(F)(F)F)cc2)c2cccnc2)CC1 (stereo not given) | 30.5 | 53100 | 17 | 
22 | N#Cc1ccc(C(c2cccnc2)N2CCN(C(=O)C3CC3)CC2)cc1 (stereo not given) | 556 | > 100000 | 281 | 
23 | O=C(Nc1ccccc1)NC1CCN(C(c2ccc(Cl)cc2)c2cncnc2)CC1 (stereo not given) | > 1000 | 54400 | 100 | 
24 | O=C(NC1CCN(C(c2ccc(C(F)(F)F)cc2)c2cccnc2)CC1)C1CC1 (stereo not given) | 280 | > 100000 | 72 | 
25 | O=C(NC(c1ccc(C(F)(F)F)cc1)c1cnccn1)c1ccc(Cl)cc1 (stereo not given) | > 1000 | 61800 | 860 | 
26 | CN(C)CCOc1ncc(C(O)(c2ccc(Cl)cc2)c2cccnc2)cn1 (stereo not given) | > 1000 | > 100000 | > 1000 | 
27 | CC(=O)NC(c1ccc(C(F)(F)F)cc1)c1cnccn1 (stereo not given) | > 10000 | > 100000 | > 10000 | 
28 | Fc1ccccc1OC1CCN(C(c2ccc(C(F)(F)F)cc2)c2cccnc2)CC1 (stereo not given) | > 90 | 67800 | 62 | 

Row | SMILES | IC90 [1] [nM] | IC50 ([2]; IC50) [nM] | IC50 [3] [nM] | IC50 [2] [nM]
29 | Fc1cc(Cl)ccc1N1CCC(NC(c2ccc(Cl)cc2)c2cccnc2)CC1 (stereo not given) | 35 | 56700 | 19.8 | 
30 | O=C(c1nccs1)N1CCC(NC(c2ccc(C(F)(F)F)cc2)c2cccnc2)CC1 (stereo not given) | 455 | > 100000 | 57 | 
31 | Cc1nocc1C(=O)N1CCC(NC(c2ccc(C(F)(F)F)cc2)c2cccnc2)CC1 (stereo not given) | 584 | > 100000 | 164 | 
32 | CC(C)CC(=O)NC1CCN(C(c2ccc(C(F)(F)F)cc2)c2cnccn2)CC1 (stereo not given) | 700 | > 100000 | 280 | 
33 | O=C(c1ccccc1)N1CCC(NC(c2ccc(C(F)(F)F)cc2)c2cccnc2)CC1 (stereo not given) | 770 | 72800 | 83 | 
34 | O=S(=O)(NC1CCN(C(c2ccc(C(F)(F)F)cc2)c2cnccn2)CC1)c1ccc(C(F)(F)F)cc1 (stereo not given) | > 1000 | 18100 | 590 | 
35 | FC(F)(F)c1ccc(C(c2cccnc2)N2CCC(Oc3ccccc3Cl)CC2)cc1 (stereo not given) | 93 | 60100 | 41 | 
36 | COc1ccccc1N1CCN(C(c2cccnc2)c2ccc(Cl)cc2F)CC1 (stereo not given) | 100 | 59800 | 45 | 
37 | CC(C)NC(=O)N1CC(=O)N(c2cc(Cl)cc(Cl)c2)C1=O [IPRODIONE] | > 100000 |  | 49000 | > 100000
38 | Cc1nocc1C(=O)NC1CCN(C(c2ccc(C(F)(F)F)cc2)c2cccnc2)CC1 (stereo not given) | 176 | 65300 | 15.5 | 
39 | N#Cc1ccc(C(c2cccnc2)N2CCC(NC(=O)c3cccc(C(F)(F)F)c3)CC2)cc1 (stereo not given) | 75.5 | > 100000 | 23 | 
40 | Cc1occc1C(=O)Nc1ccccc1 [FENFURAM] | > 100000 |  | 75000 | > 100000
41 | Clc1ccc(CN2CCC(NC(c3ccc(Cl)cc3)c3cccnc3)CC2)cc1 (stereo not given) | 98 | 20300 | 66 | 
42 | CCCCc1c(C)nc(NCC)[nH]c1=O [ETHIRIMOL] | 100000 |  | > 100000 | > 100000
43 | Clc1ccc(C(c2cccnc2)c2cccs2)cc1 (stereo not given) | 45 | > 100000 | 17 | 
44 | O=C(NC1CCN(C(c2ccc(C(F)(F)F)cc2)c2cnccn2)CC1)C1CCCCC1 (stereo not given) | 870 | > 100000 | 250 | 
45 | N#Cc1ccc(C(c2cccnc2)N2CCN(C(=O)NC3CC3)CC2)cc1 (stereo not given) | > 1000 | > 100000 | > 1000 | 
46 | CC(C)CS(=O)(=O)NC1CCN(C(c2ccc(C(F)(F)F)cc2)c2cnccn2)CC1 (stereo not given) | 880 | 62300 | 550 | 
47 | CON=C(Cc1ccccc1C)c1cccnc1 | > 1000 | > 100000 | > 1000 | 
48 | CS(=O)(=O)N1CCC(NC(c2ccc(C(F)(F)F)cc2)c2cccnc2)CC1 (stereo not given) | 930 | > 100000 | 190 | 
49 | OC(c1ccc(Cl)cc1)(c1cccnc1)c1c(F)cccc1Cl (stereo not given) | 469 |  | 172 | 66900
50 | O=C(c1ccno1)N1CCC(NC(c2ccc(C(F)(F)F)cc2)c2cccnc2)CC1 (stereo not given) | 270 | > 100000 | 90 | 
51 | O=C(NC1CCN(C(c2ccc(C(F)(F)F)cc2)c2cnccn2)CC1)c1ccccc1 (stereo not given) | 720 | > 100000 | 200 | 
52 | O=S(=O)(NC(c1ccc(C(F)(F)F)cc1)c1cnccn1)c1ccc(Cl)cc1 (stereo not given) | > 1000 | 56400 | > 1000 | 
53 | OC(c1ccc(Cl)cc1)(c1cccnc1)c1ccsc1 (stereo not given) | 154 | > 100000 | 78 | 
54 | O=C(c1ccc(Cl)cc1)N1CCC(NC(c2cnccn2)c2ccc(F)cc2F)CC1 (stereo not given) | 700 | > 100000 | 260 | 
55 | OC(c1cccnc1)(c1cncnc1)c1ccccc1Cl (stereo not given) | 10000 | > 100000 | 7820 | 
